According to patent publication US20210002725A1, “METHODS FOR THE DIAGNOSIS OF METABOLIC DISORDERS USING EPIMETABOLIC SHIFTERS, MULTIDIMENSIONAL INTRACELLULAR MOLECULES, OR ENVIRONMENTAL INFLUENCES” (Berg LLC, priority 2009, published 2021):

Legend:
SKBr3 cells = assay: Nexin assay for early and late apoptosis (flow cytometry); type: cell-based, human; conditions: 50 μM or 100 μM Q10, 24 hours
From the text: The 7AAD dye will enter into cells with permeabilized cell membranes; primarily those cells that are in late apoptosis. Annexin-V-PE is a dye that binds to Phosphotidyl serine, which is exposed on the outer surface of the plasma membrane in early apoptotic cells. The Nexin reagent thus can be used to differentiate between different populations of apoptotic cells in a flow cytometer.

variety of cell types = assay: Western blot analysis (Bcl-xL, Vimentin, oxidative phosphorylation complexes, mitochondrial membrane integrity proteins); type: cell-based; conditions: 50 or 100 μM Q10
Description: Approximately 50 μg of protein were assayed per sample by immunoblotting. All treatments were run in triplicate with controls. […] The primary antibodies were incubated overnight at 4 degrees C. in a 5% BSA and TBST solution. Secondary antibodies were incubated for one hour at 4 degrees. All antibodies were purchased from Cell Signaling Technology. Antibodies were used at a ratio of 1:1000, with the exception of βActin at a ratio of 1:5000. Blots were developed and results were quantified using the NIH Java based densitometer analysis software Image J. All blots were also probed for and normalized to their respective βActin expression.
The first experiment processed and evaluated by Western blot and 2-D gel electrophoresis was carried out on the skin cancer cell line SKMEL-28.
A variety of cell types were evaluated by Western blot analysis against an antibody for Bcl-xL (FIG. 14), an antibody for Vimentin (FIG. 15), a series of antibodies for mitochondrial oxidative phosphorylation function (FIGS. 16-21) and against a series of antibodies related to mitochondrial membrane integrity (FIGS. 22-27).

[1] = test system: Succinate Dehydrogenase B (SDHB); assay: Western blot of Succinate Dehydrogenase subunit B in mitochondrial preparations; type: cell-based; conditions: mitochondrial preparations of cancer cells
Description: The above blots were stripped by incubating for 30 minutes with methanol, followed by two 10 minute washes with TBS-T, then 30 minutes of incubation with Stripping buffer at 50 deg C., and followed by two washes with 100 ml or more of TBS-T for 30′ each. The blots were scanned in laser scanner to check for complete stripping. The blots were activated with methanol for 5 seconds, washed with water for 5 minutes, and TBST for 15 minutes. The blots were blocked for 1 hour with 5% blocking reagent in TBS-T at room temperature and then washed 3 times with TBS-T (1×-15′; 2×5′ each) and probed with the primary antibody for PKM2, SDHB or SDHC in 5% BSA in TBS-T by incubation overnight at 4 deg C. with gentle shaking. The primary antibody for SDHC (ABNOVA H00006391-M02; antimouse) was at 1:500 dilution. The primary antibody for SDHB was from Abcam ab4714-200; antimouse; at 1:1000 dilution. The primary antibody for Pyruvate Kinase M2 (PKM2) was from Novus Biologicals H00005315-DOIP; antirabbit; at 1:500 dilution. After incubation with primary antibodies, the membranes were washed 3 times with TBS-T (1×-15′; 2×5′ each) and probed with the secondary antibody (SDHB & C antimouse; and PKM2 antirabbit; 1:10,000 dilution) for 1 hon the orbital tilting shaker at room temperature. […]

HDFa cells = assay: SeaHorse XF analyzer OCR and ECAR; type: cell-based, human; conditions: normoxic and hypoxic conditions, 5.5 mM and 22 mM glucose
From the text: Environmental influencers (e.g., MIMs or Epi-shifters) may also be identified by changes in cellular energetics. One example of the measurement of cellular energetics are the real-time measures of the consumption of molecular oxygen and/or the change in pH of the media of a cell culture. For example, the ability of a potential epi-shifter to modulate the metabolic state of a cell may be analyzed using, for example, the XF24 Analyzer (Seahorse, Inc.). This technology allows for real time detection of oxygen and pH changes in a monolayer of cells in order to evaluate the bioenergetics of a cell microenvironment. The XF24 Analyzer measures and compares the rates of oxygen consumption (OCR), which is a measure of aerobic metabolism, and extracellular acidification (ECAR), which is a measure of glycolysis, both key indicators of cellular energetics.
(SeaHorse Biosciences Inc, North Billerica, Mass.).
In this experiment, the OCR and extracellular acidification rate (ECAR) in normal cells lines were obtained in the presence and absence of CoQ10 to determine baseline values. It was observed that in its native nutrient environment, the basal OCR rates in normal cells lines are different, and are usually a function of the physiological roles of the cells in the body.
For example, one set of experiments were conducted using the non-cancerous cell line HDFa, which is a human adult dermal fibroblast cell line. Fibroblasts are cells that primarily synthesize and secrete extracellular matrix (ECM) components and collagen that form the structural framework (stroma) for tissues. In addition, fibroblasts are known to serve as tissue ambassadors of numerous functions such as wound healing and localized immnomodulation. Under normal physiological conditions, energy requirements in normal fibroblasts are met using a combination of glycolysis and oxidative phosphorylation—the glycolysis providing the necessary nutrients for synthesis of ECM.
FIGS. 29 and 30 describe the OCR in HDFa and HASMC cells grown in physiologically normal glucose (about 4.6 mM) and high glucose (hyperglycemic) conditions.

HK-2 cells = assay: Mitochondria PCR arrays in cell model for diabetes; type: cell-based, human; conditions: HK-2(H) 22 mM glucose
Description: The HK-2 and HASMC cells are normally maintained in culture at 5.5 mM glucose, which is a concentration that corresponds to a range considered normal in human blood. However, in order to simulate a diabetic environment, both cell lines were subsequently maintained at 22 mM glucose, which corresponds to the range observed in human blood associated with chronic hyperglycemia. The cells were subsequently allowed to propagate over 3 passages so that the intracellular regulation processes were functionally adapted to mimic a diabetic state. The choice of cell line was based on the physiologic influence of diabetes on renal dysfunction and progression to end-stage renal disease (ESRD) in addition to the progressive pathophysiology of a compromised cardiovascular function.
Differential expression of mitochondrial genes in diabetes was assayed using the mitochondria arrays (Cat#PAHS 087E, SABisociences Frederick Md.).

[2] = test system: control and cancer cell lines; assay: Sensitivity and apoptotic response of a panel of control and cancer cell lines; type: cell-based; conditions: various levels of Coenzyme Q10
Description: In a first set of experiments, changes to cell morphology/physiology were evaluated by examining the sensitivy and apoptotic response of cells to CoQ10. […] Exemplary experiments are described in detail in Example 3 below.

## COC1=C(OC)C(=O)C(C/C=C(\C)CC/C=C(\C)CC/C=C(\C)CC/C=C(\C)CC/C=C(\C)CC/C=C(\C)CC/C=C(\C)CC/C=C(\C)CC/C=C(\C)CCC=C(C)C)=C(C)C1=O [Q10, Coenzyme Q10]
SKBr3 cells
  early and late apoptosis: did not show any significant increases of early and late apoptosis
Variety of cell types
  levels of examined proteins (Western blot): several of the examined proteins were upregulated or downregulated
[1]
  SDH protein levels in the mitochondrion: increase SDH protein levels
HDFa cells
  ECAR values: minimal influence on ECAR values
HK-2 cells; 50 μM Coenzyme Q10
  GRPEL1 gene regulation (mitochondria array): −2.6512
  SLC25A3 gene regulation (mitochondria array): −8.2059
  TOMM40 gene regulation (mitochondria array): −1.1567
  TSPO gene regulation (mitochondria array): −6.7583
HK-2 cells; 100 μM Coenzyme Q10
  GRPEL1 gene regulation (mitochondria array): −1.933
  SLC25A3 gene regulation (mitochondria array): −1.6984
  TOMM40 gene regulation (mitochondria array): −1.9509
  TSPO gene regulation (mitochondria array): −2.1104
[2]
  apoptotic response of cancer vs control cell lines: induction of apoptosis and cell death in the cancer cells only
